The record followed here is patent US11045559B2, “Reactive fluorogenic compound and nanocomposite for sensing hydrogen sulfide comprising the same” (KOREA INSTITUTE OF SCIENCE AND TECHNOLOGY, priority 2017, dated 2021).

A short description of this assay: Fluorescence response and chemoselectivity of ABR in organic media. From the text: Specifically, in order to devise a H2S-responsive fluorogenic molecular probe, the present inventors have adopted a reaction strategy based on the chemoselective reduction of aryl azides to amines, which is triggered through nucleophilic attack by a hydrosulfide anion (HS^−), which is the main active form of H2S under physiological conditions. In the probe design, the 4-azidobenzyl group was selected as a self-immolative aryl azide linker, and it was linked to a fluorescent emitter, resorufin, at its 7-hydroxy position. Since the 7-hydroxy substituent is known to efficiently quench the fluorescence of resorufin, the designed molecular probe, azidobenzylresorufin (ABR), is anticipated to be nonfluorescent and able to undergo self-immolative cleavage upon reaction with HS^−, to release a 1,6-elimination product (azaquinone methide) and resorufin with fluorescence recovery. […] Along the resulting fluorescence spectrum, the ^1H-NMR analysis confirmed that the fluorescent product is resorufin recovered through the self-immolative release from ABR after reduction by H2S (FIG. 3).

As to `[N-]=[N+]=Nc1ccc(COc2ccc3nc4ccc(=O)cc-4oc3c2)cc1` [ABR, 7-(4-azidobenzyloxy)-3H-phenoxazin-3-one], under “NaHS present vs absent, FIG. 2a”, the “fluorescence response toward H2S” value was “fluorescence turn-on response toward H2S”. The “chemoselectivity in spectroscopic response” value (reactive sulfur, oxygen, nitrogen species 100 μM (GSH 1 mM) in acetonitrile, FIG. 2b) is “responded only to H2S”.
